# Assay results from patent US5434136A, “Treatment of motility disorders with a GNRH analog” (priority 1992, dated 1995).
# Tests used:
# Type in all cases: in vivo, human
# [1] = tested on: serum estradiol, progesterone, LH, FSH; assay: Serum estradiol, progesterone, FSH and LH by radioimmunoassay before and after three months of leuprolide; settings: for Estradiol after 3 months / Progesterone after 3 months / FSH after 3 months / LH after 3 months: serum
# Source text: The symptoms of the two patients with GMD were abdominal pain located in the right upper quadrant and epigastrium, daily nausea, and intermittent vomiting exacerbated by eating and by the luteal phase of the menstrual cycle. The two patients with IIHVN had abdominal pain, nausea, and intermittent vomiting, and also had urinary tract involvement consisting of pain and a decrease in urination. The fifth patient had Roux-en-Y syndrome (defined as epigastric-to-right-upper-quadrant pain, nausea, and vomiting increased by eating) after surgical construction of a gastro-jejunal Roux-en-Y anastomosis. The mean duration of these symptoms was eight years (Table 1). All subjects had undergone extensive blood testing, several upper gastrointestinal x-ray series, barium enemas, esophagogastroduodenoscopy, endoscopic retrograde cholangiopancreatography, gastric emptying tests with radiolabeled meal, ultrasound of the abdomen, computerized axial tomography of the abdomen, and many other tests. The results of all tests were normal, except for prolonged gastric emptying in the patient with the Roux-en-Y Syndrome. Because of their intractable clinical problem, these patients were included in the test protocol with leuprolide acetate. Protocol: The symptoms of each patient were first assessed, and their tests evaluated. Each patient kept a daily symptom diary. Leuprolide acetate was obtained by prescription as Lupron (TAP pharmaceuticals, Abbott Labs, North Chicago, Ill.). One multi-use vial of Lupron comprised of […] Leuprolide Acetate. A daily dose of 0.5 mg ([…]) was self-administered by subcutaneous injection, for a period of three months. Each patient was examined at 0, 1 and 3 months of treatment. After the third month, leuprolide was continued as previously, and estrogen (0.625 mg orally) and calcium (1000 mg orally) were also administered. At the end of the sixth month, a two week withdrawal period from leuprolide acetate ensued. During this period a 10 mg oral dose of progesterone was given to pre-menopausal patients, to assess recurrence of symptoms and to induce menses. Post-menopausal women were not treated with progesterone during the two week withdrawal period. This procedure was then continued for an additional six months, with drug withdrawal and progesterone given every three months to induce a menstrual cycle. Serum estradiol, progesterone, FSH, and LH were quantitated by radioimmunoassay prior to the initiation of leuprolide treatment, and at three months post treatment initiation.
# [2] = tested on: functional bowel disease (IIHVN), ovaries removed; assay: Effective dose of leuprolide acetate in patients having previous ovariectomy
# Source text: Two patients discussed in Example 1 were women who had undergone surgery for removal of their ovaries. The first patient, Number 3, had undergone this surgery approximately two years prior to beginning Leuprolide acetate treatment. The second patient, Number 4, underwent ovariectomy 18 months […] beginning treatment with Leuprolide Acetate. In both cases, the effective dose of leuprolide acetate was higher than the effective dose required by patients who had not had ovaries removed.
# [3] = tested on: GI disorders secondary to SLE; assay: Treatment of patients with GI disorders secondary to Systemic Lupus Erythematosus: clinical outcome; settings: for GI symptoms: within eight weeks
# Procedure: Daily treatment with 2.0 mg luprolide acetate (Lupron, Tapp Abbott Pharmaceutical Company) was given daily by subcutaneous injection. […] Treatment with 1.25 mg. of leuprolide acetate (Lupron) was given daily by subcutaneous injection. […] Daily administration of 1.75 mg of luprolide acetate (Lupron) was administered subcutaneously. […] This patient has been hospitalized several times since beginning luprolide acetate therapy for exacerbations of their SLE, but the GI tract has not been a factor. Their debilitating symptoms have been controlled, and they were able to return to work. Daily administration of 1.5 mg of luprolide acetate (Lupron) was given by subcutaneous injection. Within eight weeks of Lupron therapy, their GI symptoms were controlled. […] Daily administration of 1.75 mg luprolide acetate (Lupron) was given subcutaneously. After six months of Lupron therapy, motility recordings were again performed. Ten migrating motor complexes per 12 hour recording session were seen. These complexes were organized and appeared more typical of a controlled tracing, showing normal cycling activity in the stomach and small intestine. […] Their hydrogen breath test was unchanged.
# [4] = after three months of treatment vs baseline
# [5] = SLE patient 1, 2.0 mg daily s.c.
# [6] = SLE patient 2, 1.25 mg daily s.c., within approximately eight weeks
# [7] = SLE patient 4, 1.5 mg daily s.c.
compound,measurement,setting,value
"CCNC(=O)[C@@H]1CCCN1C(=O)[C@H](CCCNC(=N)N)NC(=O)[C@H](CC(C)C)NC(=O)[C@@H](CC(C)C)NC(=O)[C@H](Cc1ccc(O)cc1)NC(=O)[C@H](CO)NC(=O)[C@H](Cc1c[nH]c2ccccc12)NC(=O)[C@H](Cc1c[nH]cn1)NC(=O)[C@@H]1CCC(=O)N1 [Leuprolide acetate, leuprolide acetate]",Estradiol after 3 months,"[1]; Patient 1, baseline 44.0 pg/ml",13.0 pg/mL
same,Progesterone after 3 months,"[1]; Patient 1, baseline 3.0 n/ml",< 0.25 n/ml
same,FSH after 3 months,"[1]; Patient 1, baseline 12.1 mIU/ml",9.0 MIU/ml
same,LH after 3 months,"[1]; Patient 1, baseline 19.0 mIU/mL",6.0 mIU/ml
same,Estradiol after 3 months,"[1]; Patient 2, baseline 44.0 pg/ml",39.0 pg/mL
same,Progesterone after 3 months,"[1]; Patient 2, baseline 1.0 n/ml",< 0.25 n/ml
same,FSH after 3 months,"[1]; Patient 2, baseline 13.0 mIU/ml",11.0 MIU/ml
same,LH after 3 months,"[1]; Patient 2, baseline 16.0 mIU/ml",7.0 mIU/ml
same,Estradiol after 3 months,"[1]; Patient 3, baseline 28.0 pg/ml",3.4 pg/mL
same,LH after 3 months,"[1]; Patient 3, baseline 18.4 mIU/ml",11.2 mIU/ml
same,FSH after 3 months,"[1]; Patient 3, baseline 32.0 mIU/ml",11.2 mIU/ml
same,Progesterone after 3 months,"[1]; Patient 3, baseline <0.25 n/ml",< 0.25 n/ml
same,Estradiol after 3 months,"[1]; Patient 4, baseline 20.0 pg/ml",5.5 pg/mL
same,Progesterone after 3 months,"[1]; Patient 4, baseline 3.0 n/ml",< 0.25 n/ml
same,FSH after 3 months,"[1]; Patient 4, baseline 13.1 mIU/ml",7.9 mIU/ml
same,LH after 3 months,"[1]; Patient 4, baseline 18.3 mIU/ml",5.0 MIU/ml
same,Estradiol and FSH levels,[1]; [4],decreased
same,Levels of serum progesterone and LH,[1]; [4],significant decrease
same,Daily dose needed to overcome symptoms,"[2]; Patient 3, ovaries removed, initially 0.5 mg",2.0 mg
same,Effective daily dose that relieved symptoms,"[2]; Patient 4, post-ovariectomy",2.0 mg
same,Sufficiency of daily dose of 0.5 mg,"[2]; Patient 4, post-ovariectomy",not sufficient
same,Symptoms at daily dose of 0.5 mg,"[2]; Patient 4, prior to the removal of their ovaries",symptom free
same,Effective dose compared with patients who had not had ovaries removed,[2]; Patients 3 and 4,higher
same,Compliment levels (C3 and C4),[3]; [5],returned to normal
same,"Hemoglobin, hematocrit, white blood cells and platelets",[3]; [5],returned to normal
same,Need of Imuran or prednisone to control SLE,[3]; [5],no longer required Imuran or prednisone
same,GI symptoms,[3]; [5],free of the above described GI symptoms
same,Body weight gained,[3]; [6],15-20 pounds
same,Gastrointestinal symptoms,[3]; [6],free of gastrointestinal symptoms
same,Oral food intake,"[3]; SLE patient 3, 1.75 mg daily s.c., required TPN before","able to eat soft, solid food by mouth"
same,GI symptoms,"[3]; SLE patient 3, 1.75 mg daily s.c.",controlled
same,Nutrition,[3]; [7],able to eat and maintain their nutrition on liquid supplements taken by mouth
same,Body weight within six months,"[3]; SLE patient 4, 1.5 mg daily s.c., oral intake","did not gain weight, but they did not lose weight"
same,GI symptoms,[3]; [7],controlled
same,"Effectiveness of therapy in an older, post menopausal patient",[3]; SLE patient 5,effective
same,Eating and body weight,"[3]; SLE patient 5, after six months of therapy",able to eat foods by mouth and gained weight
